# Measured values reported in ChEMBL document CHEMBL1795319, “Design, synthesis and antifungal evaluation of 1-(2-(2,4-difluorophenyl)-2-hydroxy-3-(1H-1,2,4-triazol-1-yl)propyl)-1H-1,2,4-triazol-5(4H)-one” (2011).
# Legend:
# Format in all cases: functional
# [1] = tested on: Kluyveromyces marxianus; experiment: Antifungal activity against Candida kefyr by micro-broth dilution method
# [2] = tested on: Trichophyton rubrum; experiment: Antifungal activity against Trichophyton rubrum by micro-broth dilution method
# [3] = tested on: Candida albicans; experiment: Antifungal activity against Candida albicans Y0109 after 24 hrs by micro-broth dilution method; details: Y0109, 24 h
# [4] = tested on: Cryptococcus neoformans; experiment: Antifungal activity against Cryptococcus neoformans BLS108 after 72 hrs by micro-broth dilution method; details: BLS108, 72 h
# [5] = tested on: Candida tropicalis; experiment: Antifungal activity against Candida tropicalis by micro-broth dilution method
# [6] = tested on: Candida albicans; experiment: Antifungal activity against Candida albicans SC5314 after 24 hrs by micro-broth dilution method; details: SC5314, 24 h
# [7] = tested on: Candida parapsilosis; experiment: Antifungal activity against Candida parapsilosis by micro-broth dilution method; details: Lodderomyces parapsilosis
# [8] = tested on: Aspergillus fumigatus; experiment: Antifungal activity against Aspergillus fumigatus by broth microdilution method
SMILES,MIC80 [1],MIC80 [2],MIC80 [3],MIC80 [4],MIC80 [5],MIC80 [6],MIC80 [7],MIC80 [8]
CC(=O)Nc1ccc(-n2cnn(CC(O)(Cn3cncn3)c3ccc(F)cc3F)c2=O)cc1 (racemic),> 64 µg/mL,> 64 µg/mL,4 µg/mL,> 64 µg/mL,16 µg/mL,16 µg/mL,16 µg/mL,> 64 µg/mL
CCCCCCCC(=O)Nc1ccc(-n2cnn(CC(O)(Cn3cncn3)c3ccc(F)cc3F)c2=O)cc1 (racemic),> 64 µg/mL,> 64 µg/mL,16 µg/mL,> 64 µg/mL,64 µg/mL,4 µg/mL,64 µg/mL,> 64 µg/mL
N#Cc1cccc(-n2cnn(CC(O)(Cn3cncn3)c3ccc(F)cc3F)c2=O)c1 (racemic),0.00024 µg/mL,4 µg/mL,0.00024 µg/mL,0.25 µg/mL,0.00024 µg/mL,0.00024 µg/mL,0.00024 µg/mL,> 64 µg/mL
C[C@@H](c1ncncc1F)[C@](O)(Cn1cncn1)c1ccc(F)cc1F [VORICONAZOLE],0.0039 µg/mL,0.0156 µg/mL,0.0039 µg/mL,0.0039 µg/mL,0.0039 µg/mL,0.0039 µg/mL,0.0039 µg/mL,0.0039 µg/mL
O=c1n(-c2ccc(Cl)cc2)cnn1CC(O)(Cn1cncn1)c1ccc(F)cc1F (racemic),0.0156 µg/mL,16 µg/mL,0.0625 µg/mL,64 µg/mL,0.0625 µg/mL,0.0625 µg/mL,1 µg/mL,> 64 µg/mL
CCCCCCC(=O)Nc1ccc(-n2cnn(CC(O)(Cn3cncn3)c3ccc(F)cc3F)c2=O)cc1 (racemic),1 µg/mL,64 µg/mL,0.0625 µg/mL,0.0625 µg/mL,64 µg/mL,0.0039 µg/mL,1 µg/mL,> 64 µg/mL
O=c1n(-c2ccc(Br)cc2)cnn1CC(O)(Cn1cncn1)c1ccc(F)cc1F (racemic),0.0156 µg/mL,16 µg/mL,0.156 µg/mL,16 µg/mL,0.0625 µg/mL,1 µg/mL,1 µg/mL,> 64 µg/mL
CCC(C)n1ncn(-c2ccc(N3CCN(c4ccc(OCC5COC(Cn6cncn6)(c6ccc(Cl)cc6Cl)O5)cc4)CC3)cc2)c1=O (stereo unspecified) [ITRACONAZOLE],0.0625 µg/mL,0.0625 µg/mL,0.0625 µg/mL,0.0625 µg/mL,0.0625 µg/mL,0.0625 µg/mL,0.0625 µg/mL,0.0625 µg/mL
N#Cc1ccc(-n2cnn(CC(O)(Cn3cncn3)c3ccc(F)cc3F)c2=O)cc1 (racemic),16 µg/mL,64 µg/mL,1 µg/mL,> 64 µg/mL,4 µg/mL,1 µg/mL,1 µg/mL,> 64 µg/mL
CCCCCC(=O)Nc1ccc(-n2cnn(CC(O)(Cn3cncn3)c3ccc(F)cc3F)c2=O)cc1 (racemic),4 µg/mL,64 µg/mL,0.00024 µg/mL,0.0625 µg/mL,0.00097 µg/mL,0.00097 µg/mL,0.00024 µg/mL,> 64 µg/mL
O=c1n(-c2ccccc2)cnn1CC(O)(Cn1cncn1)c1ccc(F)cc1F (racemic),0.25 µg/mL,16 µg/mL,0.25 µg/mL,64 µg/mL,0.25 µg/mL,1 µg/mL,4 µg/mL,> 64 µg/mL
N#CCC(=O)Nc1ccc(-n2cnn(CC(O)(Cn3cncn3)c3ccc(F)cc3F)c2=O)cc1 (racemic),> 64 µg/mL,16 µg/mL,1 µg/mL,> 64 µg/mL,1 µg/mL,0.25 µg/mL,1 µg/mL,> 64 µg/mL
O=C(Nc1ccc(-n2cnn(CC(O)(Cn3cncn3)c3ccc(F)cc3F)c2=O)cc1)C1CC1 (racemic),> 64 µg/mL,> 64 µg/mL,0.0625 µg/mL,> 64 µg/mL,1 µg/mL,0.0625 µg/mL,0.25 µg/mL,> 64 µg/mL
OC(Cn1cncn1)(Cn1cncn1)c1ccc(F)cc1F [FLUCONAZOLE],4 µg/mL,1 µg/mL,0.25 µg/mL,1 µg/mL,1 µg/mL,0.25 µg/mL,0.25 µg/mL,> 64 µg/mL
O=C(Nc1ccc(-n2cnn(CC(O)(Cn3cncn3)c3ccc(F)cc3F)c2=O)cc1)c1ccco1 (racemic),4 µg/mL,> 64 µg/mL,0.25 µg/mL,16 µg/mL,1 µg/mL,0.25 µg/mL,0.0625 µg/mL,> 64 µg/mL
Cc1ccc(-n2cnn(CC(O)(Cn3cncn3)c3ccc(F)cc3F)c2=O)cc1 (racemic),0.25 µg/mL,64 µg/mL,1 µg/mL,64 µg/mL,0.25 µg/mL,0.25 µg/mL,4 µg/mL,> 64 µg/mL

SMILES,MIC80 [1],MIC80 [2],MIC80 [3],MIC80 [4],MIC80 [5],MIC80 [6],MIC80 [7],MIC80 [8]
O=C(Nc1ccc(-n2cnn(CC(O)(Cn3cncn3)c3ccc(F)cc3F)c2=O)cc1)C1CCCCC1 (racemic),> 64 µg/mL,16 µg/mL,> 64 µg/mL,> 64 µg/mL,> 64 µg/mL,> 64 µg/mL,> 64 µg/mL,> 64 µg/mL
C[C@@H]1[C@H](O)[C@@H](C)/C=C/C=C/C=C/C=C/C=C/C=C/C=C/[C@H](O[C@@H]2O[C@H](C)[C@@H](O)[C@H](N)[C@@H]2O)C[C@@H]2O[C@](O)(C[C@@H](O)C[C@@H](O)[C@H](O)CC[C@@H](O)C[C@@H](O)CC(=O)O[C@H]1C)C[C@H](O)[C@H]2C(=O)O [AMPHOTERICIN B],0.25 µg/mL,4 µg/mL,0.25 µg/mL,1 µg/mL,1 µg/mL,0.25 µg/mL,0.25 µg/mL,1 µg/mL
O=C(Nc1ccc(-n2cnn(CC(O)(Cn3cncn3)c3ccc(F)cc3F)c2=O)cc1)c1cccnc1 (racemic),16 µg/mL,64 µg/mL,1 µg/mL,64 µg/mL,4 µg/mL,1 µg/mL,1 µg/mL,> 64 µg/mL
Cc1ccnc(-n2cnn(CC(O)(Cn3cncn3)c3ccc(F)cc3F)c2=O)c1 (racemic),0.0625 µg/mL,64 µg/mL,0.00024 µg/mL,0.00024 µg/mL,0.00024 µg/mL,0.00024 µg/mL,0.00024 µg/mL,> 64 µg/mL
O=C(Nc1ccc(-n2cnn(CC(O)(Cn3cncn3)c3ccc(F)cc3F)c2=O)cc1)c1ccccn1 (racemic),16 µg/mL,> 64 µg/mL,4 µg/mL,> 64 µg/mL,> 64 µg/mL,1 µg/mL,4 µg/mL,> 64 µg/mL
O=c1n(-c2ccccc2Cl)cnn1CC(O)(Cn1cncn1)c1ccc(F)cc1F (racemic),0.25 µg/mL,64 µg/mL,1 µg/mL,64 µg/mL,1 µg/mL,1 µg/mL,16 µg/mL,> 64 µg/mL
CCCC(=O)Nc1ccc(-n2cnn(CC(O)(Cn3cncn3)c3ccc(F)cc3F)c2=O)cc1 (racemic),16 µg/mL,> 64 µg/mL,4 µg/mL,> 64 µg/mL,4 µg/mL,4 µg/mL,4 µg/mL,> 64 µg/mL
O=c1n(-c2ccc(Cl)c(Cl)c2)cnn1CC(O)(Cn1cncn1)c1ccc(F)cc1F (racemic),16 µg/mL,> 64 µg/mL,16 µg/mL,0.25 µg/mL,64 µg/mL,4 µg/mL,16 µg/mL,> 64 µg/mL
CCC(=O)Nc1ccc(-n2cnn(CC(O)(Cn3cncn3)c3ccc(F)cc3F)c2=O)cc1 (racemic),64 µg/mL,> 64 µg/mL,4 µg/mL,> 64 µg/mL,16 µg/mL,1 µg/mL,4 µg/mL,> 64 µg/mL
O=c1n(-c2ccc(F)cc2)cnn1CC(O)(Cn1cncn1)c1ccc(F)cc1F (racemic),0.25 µg/mL,64 µg/mL,1 µg/mL,> 64 µg/mL,0.25 µg/mL,1 µg/mL,4 µg/mL,> 64 µg/mL
O=c1n(-c2nc(-c3ccc(Cl)cc3Cl)cs2)cnn1CC(O)(Cn1cncn1)c1ccc(F)cc1F (racemic),4 µg/mL,64 µg/mL,16 µg/mL,64 µg/mL,16 µg/mL,16 µg/mL,64 µg/mL,> 64 µg/mL
O=c1n(-c2nccs2)cnn1CC(O)(Cn1cncn1)c1ccc(F)cc1F (racemic),1 µg/mL,16 µg/mL,1 µg/mL,64 µg/mL,1 µg/mL,0.25 µg/mL,0.25 µg/mL,> 64 µg/mL
CCCCC(=O)Nc1ccc(-n2cnn(CC(O)(Cn3cncn3)c3ccc(F)cc3F)c2=O)cc1 (racemic),64 µg/mL,> 64 µg/mL,0.00024 µg/mL,0.0625 µg/mL,0.0625 µg/mL,0.00097 µg/mL,0.00024 µg/mL,> 64 µg/mL
O=C(Nc1ccc(-n2cnn(CC(O)(Cn3cncn3)c3ccc(F)cc3F)c2=O)cc1)c1cccs1 (racemic),> 64 µg/mL,> 64 µg/mL,1 µg/mL,> 64 µg/mL,16 µg/mL,0.25 µg/mL,4 µg/mL,> 64 µg/mL
COc1ccc(-n2cnn(CC(O)(Cn3cncn3)c3ccc(F)cc3F)c2=O)cc1 (racemic),0.0625 µg/mL,16 µg/mL,0.0625 µg/mL,16 µg/mL,0.0625 µg/mL,1 µg/mL,1 µg/mL,> 64 µg/mL
O=c1n(-c2ccc([N+](=O)[O-])cc2)cnn1CC(O)(Cn1cncn1)c1ccc(F)cc1F (racemic),0.25 µg/mL,16 µg/mL,1 µg/mL,64 µg/mL,0.25 µg/mL,1 µg/mL,16 µg/mL,> 64 µg/mL
